Test results from patent US9028856B2, “Synergistic pesticide compositions” (priority 2008, dated 2015).

Legend:
[1] = test system: Argentine ant, Linepithema humile; test: Knockdown/mortality of ant workers under continuous exposure on treated glazed tile; settings: for Average % Mortality after 15 min / Average % Mortality after 3 hr / Average % Mortality after 21 hr: Table 34, thiamethoxam/adjuvant in acetone; for Average % Knockdown & Mortality after 3 hr / Average % Knockdown & Mortality after 7 hr: Table 7 (Ex. 4)
Method: (§1) Solutions of imidacloprid at 0.5% AI were prepared with and without methyl oleate @0.1, 1.0 and 5.0% in acetone. Treatments were applied using a micropipette to dispense 1 ml of test solution evenly on a 6″×6″ glazed tile. Actual coverage was about 5″×5″ (or 161 cm^2) for easy handling. Treatments were allowed to dry overnight. Ten Argentine ant workers were placed within a fluon or talc-coated PVC ring (φ7.6 cm×H 5.1 cm) under continuous exposure. A small vial filled with a cotton ball soaked in water was added as a drinking source after 3 hours. Treatments were replicated a minimum of three times. Evaluations for ant knockdown/mortality were made at various intervals and at 24 hours after exposure.
as §1, with “MATERIALS AND METHODS: Solutions” for “Solutions”, “linoleate” for “oleate”
as §1, with “MATERIALS AND METHODS: Solutions of” for “Solutions of”, “without methyl palmitate @0.1, 1.0” for “without methyl oleate @0.1, 1.0”, “after exposure. […]” for “after exposure.”

[2] = test system: susceptible/normal German cockroach (Monheim strain), Blattella germanica; test: Knockdown/mortality of male cockroaches under continuous exposure on treated glazed tile; assay type: in vivo; settings: Table 36, thiamethoxam/adjuvant in acetone, glazed tile, Monheim strain
Method: Treatments were allowed to dry overnight. […] Treatments were replicated a minimum of three times. […]
Treatments were allowed to dry overnight. […] Treatments were replicated a minimum of three times. Cockroach knockdown/mortality was evaluated at 5 minute intervals for the first 60 minutes after exposure and then at 2, 18 and 24 hours.

Aedes aegypti mosquito = test: USDA Petri Dish Method, 3 min exposure to treated glazed tile; assay type: in vivo; settings: Table 33, thiamethoxam/adjuvant in acetone, glazed tile, 3 min exposure
Method: (§2) Treatments were allowed to dry overnight. USDA Petri Dish Method was used as initial screening protocol. Twenty, 4-6 day old female Aedes aegypti mosquitoes were exposed to each treatment for 3 minutes and then moved to a clean untreated white paper index card. Treatments were replicated a minimum of three times. Mosquito knockdown was evaluated at various intervals through 7 hours after exposure. A small cotton ball soaked in sucrose solution was added on the screen top of the petri-dish as a drinking source. Mortality was evaluated at 24 hours after exposure.
MATERIALS AND METHODS: Solutions of resmethrin at 1 and 0.5% AI were prepared with and without adjuvant in acetone. […] USDA Petri Dish Method was used as initial screening protocol. Twenty, 4-6 day old female Aedes aegypti mosquitoes were exposed to each treatment for 3 minutes and then moved to a clean untreated white paper index card. Treatments were replicated a minimum of three times. Mosquito knockdown was evaluated at 3 minute intervals for the first 15 minutes and then at 5 minute intervals for the remainder of an hour. A small cotton ball soaked in sucrose solution was added on the screen top of the petri-dish as a drinking source. Mortality was evaluated at 24 hours after exposure.
as §2, with “6” for “7”
as §2, with “5 minute” for “various”, “for the first hour and then at 2, 4 and 6 hours.” for “through 7 hours after exposure.”
Treatments were allowed to dry overnight. USDA Petri Dish Method was used as initial screening protocol. Twenty, 4-6 day old female Aedes aegypti mosquitoes were exposed to each treatment for 3 minutes and then moved to a clean untreated white paper index card. Treatments were replicated a minimum of three times. Mosquito knockdown was evaluated at 3-5 minute intervals for the first hour. A small cotton ball soaked in sucrose solution was then added on the screen top of the petri-dish as a drinking source. Mortality was evaluated at 24 hours after exposure.
as §2, with “intervals through 2 hours after” for “intervals through 7 hours after”, “solution was then added on” for “solution was added on”
Treatments were allowed to dry overnight. USDA Petri Dish Method was used as initial screening protocol. Twenty, 4-6 day old female Aedes aegypti mosquitoes were exposed to each treatment for 3 minutes and then moved to a clean untreated white paper index card. Treatments were replicated a minimum of three times. Mosquito knockdown was evaluated at various hourly intervals. […]

[3] = test system: Odorous House ant, Tapinoma sessile; test: Knockdown/mortality of ant workers under continuous exposure on treated glazed tile; assay type: in vivo; settings: Table 35, thiamethoxam/adjuvant in acetone, glazed tile
From the text: Actual coverage was about 5″×5″ (or 161 cm2) for easy handling. Treatments were allowed to dry overnight. […] Treatments were replicated minimum three times.
(§3) Treatments were allowed to dry overnight. […] Treatments were replicated minimum three times.
(§4) Treatments were allowed to dry overnight. […] Treatments were replicated a minimum of three times.
Treatments were allowed to dry overnight. […] Treatments were replicated minimum of three times. […] The results are shown in FIG. 84 (No adjuvant alone treatment was performed).

[4] = test system: Red Imported Fire ant (RIFA), Solenopsis invicta; test: as above; assay type: in vivo; settings: Table 72, β-cyfluthrin study, Red Imported Fire ant; for Average % Mortality after 15 min: glazed tile, continuous exposure, adjuvant = Compound A 1% + Compound B 0.5%
From the text: as §3, §4

[5] = test system: bait averse/resistant German cockroach (T-164 strain); test: Knockdown/mortality of male cockroaches under continuous exposure on treated glazed tile; assay type: in vivo, Blattella germanica; settings: for Average % Knockdown & Mortality after 3 hr: Table 23, imidacloprid/tritylchloride in acetone
[6] = Table 22, imidacloprid/tritylchloride in acetone, glazed tile, continuous exposure
[7] = glazed tile, continuous exposure, listed as Oleic acid (0.1%)
[8] = glazed tile, continuous exposure, listed as Oleic acid (5%)

CN1COCN(Cc2cnc(Cl)s2)/C1=N\[N+](=O)[O-] [Thiamethoxam (1%)]
Average % Mortality after 15 min ([1]; glazed tile): 3%
Average % Mortality after 3 hr ([1]; glazed tile): 34%
Average % Mortality after 21 hr ([1]; glazed tile): 100%
Average % Knockdown & Mortality after 30 min [2]: 13%
Average % Knockdown & Mortality after 60 min [2]: 73%
Average % Knockdown & Mortality after 90 min [2]: 80%
Average % Knockdown & Mortality after 3 hr [2]: 93%
Average % Knockdown & Mortality after 24 hr [2]: 100%
Average % Knockdown & Mortality after 2 hr (Aedes aegypti mosquito): 2%
Average % Knockdown & Mortality after 3 hr (Aedes aegypti mosquito): 2%
Average % Knockdown & Mortality after 7 hr (Aedes aegypti mosquito): 4%
Average % Knockdown & Mortality after 24 hr (Aedes aegypti mosquito): 4%
Average % Knockdown & Mortality after 15 min [3]: 0%
Average % Knockdown & Mortality after 30 min [3]: 0%
Average % Knockdown & Mortality after 60 min [3]: 0%
Average % Knockdown & Mortality after 2 hr [3]: 21%
Average % Knockdown & Mortality after 20 hr [3]: 65%

CC1(C)C(C=C(Cl)Cl)C1C(=O)OC(C#N)c1ccc(F)c(Oc2ccccc2)c1 (stereo not drawn) [β-cyfluthrin (.005%)]
Average % Mortality after 15 min [4]: 100%
Average % Mortality after 30 min [4]: 100%
Average % Mortality after 60 min [4]: 100%
Average % Mortality after 24 hr [4]: 100%

CN1COCN(Cc2cnc(Cl)s2)/C1=N\[N+](=O)[O-] [Thiamethoxam (0.1%)]
Average % Mortality after 15 min ([1]; glazed tile): 12%
Average % Mortality after 3 hr ([1]; glazed tile): 46%
Average % Mortality after 21 hr ([1]; glazed tile): 100%
Average % Knockdown & Mortality after 30 min [2]: 7%
Average % Knockdown & Mortality after 60 min [2]: 73%
Average % Knockdown & Mortality after 90 min [2]: 93%
Average % Knockdown & Mortality after 3 hr [2]: 100%
Average % Knockdown & Mortality after 24 hr [2]: 100%
Average % Knockdown & Mortality after 2 hr (Aedes aegypti mosquito): 0%
Average % Knockdown & Mortality after 3 hr (Aedes aegypti mosquito): 0%
Average % Knockdown & Mortality after 7 hr (Aedes aegypti mosquito): 0%
Average % Knockdown & Mortality after 24 hr (Aedes aegypti mosquito): 0%
Average % Knockdown & Mortality after 15 min [3]: 0%
Average % Knockdown & Mortality after 30 min [3]: 0%
Average % Knockdown & Mortality after 60 min [3]: 0%
Average % Knockdown & Mortality after 2 hr [3]: 3%
Average % Knockdown & Mortality after 20 hr [3]: 33%

CC1(C)C(C=C(Cl)Cl)C1C(=O)OC(C#N)c1ccc(F)c(Oc2ccccc2)c1 (stereo not drawn) [β-cyfluthrin (.001%)]
Average % Mortality after 15 min [4]: 39%
Average % Mortality after 30 min [4]: 100%
Average % Mortality after 60 min [4]: 100%
Average % Mortality after 24 hr [4]: 100%

ClC(c1ccccc1)(c1ccccc1)c1ccccc1 [Tritylchloride (0.1%)]
Average % Knockdown & Mortality after 2 hr [1, 6]: 0%
Average % Knockdown & Mortality after 5 hr [1, 6]: 0%
Average % Knockdown & Mortality after 3 hr ([5]; glazed tile, T-164 strain): 0%

ClC(c1ccccc1)(c1ccccc1)c1ccccc1 [Tritylchloride (1%)]
Average % Knockdown & Mortality after 2 hr [1, 6]: 0%
Average % Knockdown & Mortality after 5 hr [1, 6]: 0%
Average % Knockdown & Mortality after 3 hr ([5]; glazed tile, T-164 strain): 0%

CCCCOC(=O)CCCCCCCCC(=O)OCCCC [DBS (5%)]
Average % Knockdown & Mortality after 2 hr ([1]; Table 25, imidacloprid/dibutyl sebacate (DBS) in acetone, glazed tile): 100%
Average % Knockdown & Mortality after 4 hr ([1]; 4 hr, Table 25, imidacloprid/dibutyl sebacate (DBS) in acetone, glazed tile): 100%
Average % Knockdown & Mortality after 45 min ([5]; 45 min, Table 24, imidacloprid/dibutyl sebacate (DBS) in acetone, glazed tile, T-164 strain): 0%

CCCCCCCC/C=C\CCCCCCCC(=O)O [Oleic acid]
toxicity / efficacy of the substance alone (summary in words) ([1]; Argentine ant, treated glazed tile): at the high rates (1 & 5%) was toxic to the Argentine ants, but not at the low rate (0.1%)
Average % Knockdown & Mortality after 3 hr [1, 7]: 0%
Average % Knockdown & Mortality after 7 hr [1, 7]: 0%
Average % Knockdown & Mortality after 3 hr ([1]; glazed tile, continuous exposure, listed as Oleic acid (1%)): 82%
Average % Knockdown & Mortality after 3 hr [1, 8]: 100%
Average % Knockdown & Mortality after 7 hr [1, 8]: 100%
toxicity / efficacy of the substance alone (summary in words) ([5]; German cockroach T-164, treated glazed tile): toxic to German cockroaches at the high rate (5%), but not toxic at the two low rates
Average % Knockdown & Mortality after 15 min ([5]; Table 6 (Ex. 3), glazed tile, continuous exposure): 0%

ClC(c1ccccc1)(c1ccccc1)c1ccccc1 [Tritylchloride (5%)]
Average % Knockdown & Mortality after 2 hr [1, 6]: 0%
Average % Knockdown & Mortality after 5 hr [1, 6]: 0%
Average % Knockdown & Mortality after 3 hr ([5]; glazed tile, T-164 strain): 0%
